Measured values as given in PMC4532598 (European journal of pharmacology, 2015).
Entries after “also recorded” stand apart in the source; their conditions may differ.

Columns and labels:
[1] = molecular target: T1, hKOP receptor (Homo sapiens, UniProt P41145); assay: cell-based; format: cell-based; settings: for Emax: read-out: Internalization Emax (% receptor internalized)
[2] = molecular target: T1, hKOP receptor; assay: biochemical; format: biochemical; settings: for Emax: read-out: [35S]GTPγS binding Emax
[3] = molecular target: T1, hKOP receptor
[4] = molecular target: T2, mKOP receptor (Mus musculus, UniProt P33534)
[5] = molecular target: T2, mKOP receptor; assay: biochemical; format: biochemical; settings: for Emax: read-out: [35S]GTPγS binding Emax
[6] = molecular target: T2, mKOP receptor; assay: cell-based; format: cell-based
[7] = system: mice; settings: mouse, in vivo; cited from earlier work

T1 sequence (P41145 whole entry): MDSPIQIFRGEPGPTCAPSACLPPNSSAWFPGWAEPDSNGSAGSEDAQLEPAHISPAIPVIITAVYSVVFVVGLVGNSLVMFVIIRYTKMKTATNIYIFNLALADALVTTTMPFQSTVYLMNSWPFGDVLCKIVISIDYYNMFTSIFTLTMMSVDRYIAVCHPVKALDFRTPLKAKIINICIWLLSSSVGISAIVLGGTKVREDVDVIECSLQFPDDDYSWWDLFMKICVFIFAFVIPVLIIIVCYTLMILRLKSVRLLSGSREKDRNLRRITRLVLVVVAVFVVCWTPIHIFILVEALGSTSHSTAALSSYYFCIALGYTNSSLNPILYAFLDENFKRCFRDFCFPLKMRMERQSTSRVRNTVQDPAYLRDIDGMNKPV
T2 sequence (P33534 whole entry): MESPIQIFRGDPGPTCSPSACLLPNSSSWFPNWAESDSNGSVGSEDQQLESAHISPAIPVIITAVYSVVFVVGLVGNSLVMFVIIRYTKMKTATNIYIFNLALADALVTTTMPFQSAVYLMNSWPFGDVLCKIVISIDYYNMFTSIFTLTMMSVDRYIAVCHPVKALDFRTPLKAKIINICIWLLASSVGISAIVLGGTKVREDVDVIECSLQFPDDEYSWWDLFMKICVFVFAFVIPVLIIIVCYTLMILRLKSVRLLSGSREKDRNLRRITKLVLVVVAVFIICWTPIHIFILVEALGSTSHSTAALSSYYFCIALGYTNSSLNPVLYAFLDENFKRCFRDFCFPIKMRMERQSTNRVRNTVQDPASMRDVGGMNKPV

Compound | log RAi−I [1] | EC50 ([1]; Internalization pEC50) | Emax [1] | EC50 ([2]; [35S]GTPγS binding EC50, mean) | Emax [2] | Bias factor (larger RAi divided by smaller) [3] | Bias factor, direction of bias [3] | Functional selectivity (bias) in words [3] | EC50 ([2]; [35S]GTPγS binding pEC50) | Internalization Emax (% receptor internalized) [1] | also measured
CCC12CCN(CC3(O)CC3)C(Cc3ccc(O)cc31)C2(C)C (centres unmarked) [Bremazocine, bremazocine] | 0.58 ± 0.16 | 1.35 nM | 39.2 ± 1.8% | 0.95 nM | 68.2 ± 2% | I ^c, 1.2 | I ^c, 1.2 | did not reach statistical significance | – | – | EC50 ([1]; Internalization EC50, mean): 1.4 nM; log RAi−G [2]: 0.50 ± 0.11
Oc1ccc2c(c1)[C@@]13CCCC[C@@]1(O)[C@@H](C2)N(CC1CCC1)CC3 [Butorphanol, butorphanol] | 0.088 ± 0.18 | 3.31 nM | 33.4 ± 3.2% | 2.4 nM | 25.6 ± 1.8% | – | I ^c, 4.7 | did not reach statistical significance | 2.34 nM | – | –
CC[C@]12CCN(CC3CC3)[C@H](C(=O)c3ccc(O)cc31)[C@@H]2C [EKC, ethylketocyclazocine] | – | – | 44.8 ± 2.2% | – | 80.6 ± 1.5% | – | I, 3.1 | – | – | – | log RAi−G [2]: 0.015 ± 0.11
CN1CC[C@]23CCCC[C@H]2[C@H]1Cc1ccc(O)cc13 [Levorphanol, levorphanol] | – | – | – | 72 nM | 38.1 ± 4.8% | – | – | – | – | did not cause significant internalization; also recorded: lacked an effect on receptor internalization; also recorded: did not cause receptor internalization; also recorded: No internalization | Bias factor, direction of bias [4]: I, 244; Bias factor, direction, mKOP receptor (Table 5) [4]: I, 244; Bias factor, mKOP receptor (Table 5) [4]: I, 244; Functional selectivity (bias) in words [4]: internalization-biased; log RAi−G/RAi−I (log bias) [4]: −2.39 ± 0.37; Internalization pEC50 [1]: No internalization; Agonist efficacy in [35S]GTPγS binding, in words [2]: weak partial agonist; also recorded: partial agonists; Agonist efficacy in [35S]GTPγS binding, in words [5]: partial agonists; EC50 ([5]; [35S]GTPγS binding pEC50): 30.2 nM; Emax [5]: 62.3 ± 2.9%; EC50 [6]: 0.83 nM; log RAi−I [6]: 0.29 ± 0.35; Emax ([6]; read-out: Internalization Emax (% receptor internalized)): 29.7 ± 1.7%
C=CCN1CC[C@]23c4c5ccc(O)c4O[C@H]2[C@@H](O)C=C[C@H]3[C@H]1C5 [Nalorphine, nalorphine] | – | 12 nM | 23.9% | – | 51.4 ± 2.3% | I ^c, 2.5 | I ^c, 2.5 | did not reach statistical significance | 27.5 nM | 23.7 ± 4.0% | –
CC(C)=CCN1CCC2(C)c3cc(O)ccc3CC1C2C (centres unmarked) [Pentazocine, pentazocine] | −0.87 ± 0.22 | 91.2 nM | 37 ± 13.3% | 28 nM | 20.5 ± 6.9% | I ^c, 5.8 | I ^c, 5.8 | – | 28.2 nM | – | EC50 ([1]; Internalization EC50, mean): 92 nM; Agonist efficacy in [35S]GTPγS binding, in words [2]: partial agonists; Bias factor, direction, hKOP receptor (Table 5) [3]: I ^c, 5.8; Bias factor, hKOP receptor (Table 5) [3]: I ^c, 5.8; Agonist efficacy in [35S]GTPγS binding, in words [5]: partial agonists; Emax [5]: 46.6 ± 2.7%; Internalization Emax (% receptor internalized) [6]: did not cause significant internalization; also recorded: lacked significant effects on receptor internalization; also recorded: did not cause receptor internalization; also recorded: not mKOP receptor; also recorded: No internalization
COC(=O)[C@@H]1C[C@H](OC(C)=O)C(=O)[C@H]2[C@@]1(C)CC[C@H]1C(=O)O[C@H](c3ccoc3)C[C@]21C [Salvinorin A, salvinorin A] | – | – | – | – | – | – | – | – | – | – | Sedation and anhedonia-like actions [7]: produced sedation and anhedonia-like actions
CN1c2ccccc2C(c2ccccc2F)=NCC1CNC(=O)c1ccsc1 (centres unmarked) [Tifluadom, tifluadom] | – | 11.2 nM | 29.6 ± 2.1% | 333 nM | 97.2 ± 11% | – | I, 11.8 | – | – | – | –
COC(=O)/C=C/C(=O)N[C@@H]1CC[C@@]2(O)[C@H]3Cc4ccc(O)c5c4[C@@]2(CCN3CC2CC2)[C@H]1O5 [β-FNA, β-funaltrexamine] | – | – | – | – | – | I ^c, 1.2 | I ^c, 1.2 | did not reach statistical significance | – | 32.8 ± 5.7% | Internalization pEC50 [1]: 8.02 ± 0.47 (9.6); EC50 ([1]; read-out: Internalization EC50, mean): 9.6 nM; [35S]GTPγS binding Emax [2]: 63.7 ± 2.4%; [35S]GTPγS binding pEC50 [2]: 8.08 ± 0.09 (8.4); EC50 ([2]; read-out: [35S]GTPγS binding EC50, mean): 8.4 nM
RB-64 | – | – | – | – | – | – | – | – | – | – | Sedation and anhedonia-like actions [7]: did not induce sedation or anhedonia-like effects
